Reference: patent publication EP0227941A1, “1-Phenyl-4-(1H)-pyridazinimines, their preparation and use” (BASF Aktiengesellschaft, priority 1985, dated 1987)
pIC50: −log10 of the molar value. Structures can show the parent of a compound that is named as a salt. Where two headings read alike, the source gives them in different places.

Assays:
Format in all cases: biochemical, Ratten
Monoaminoxidase Typ B = target: T1, Monoaminoxidase Typ B (Rattus norvegicus, UniProt P19643); experiment: Inhibition of monoamine oxidase type B in rat brain homogenate (14C-phenylethylamine); conditions: for Hemmung der Monoaminoxidase Typ B r.W. (relative Wirksamkeit): Quotient IC50 Referenzverbindung / IC50 Beispielverbindung
T1 construct: Die Bestimmung der Monoaminoxidase erfolgte in verdünntem Rattenhirnhomogenat; from tissue; host or cells: rat brain homogenate
T1 sequence (P19643 1-520): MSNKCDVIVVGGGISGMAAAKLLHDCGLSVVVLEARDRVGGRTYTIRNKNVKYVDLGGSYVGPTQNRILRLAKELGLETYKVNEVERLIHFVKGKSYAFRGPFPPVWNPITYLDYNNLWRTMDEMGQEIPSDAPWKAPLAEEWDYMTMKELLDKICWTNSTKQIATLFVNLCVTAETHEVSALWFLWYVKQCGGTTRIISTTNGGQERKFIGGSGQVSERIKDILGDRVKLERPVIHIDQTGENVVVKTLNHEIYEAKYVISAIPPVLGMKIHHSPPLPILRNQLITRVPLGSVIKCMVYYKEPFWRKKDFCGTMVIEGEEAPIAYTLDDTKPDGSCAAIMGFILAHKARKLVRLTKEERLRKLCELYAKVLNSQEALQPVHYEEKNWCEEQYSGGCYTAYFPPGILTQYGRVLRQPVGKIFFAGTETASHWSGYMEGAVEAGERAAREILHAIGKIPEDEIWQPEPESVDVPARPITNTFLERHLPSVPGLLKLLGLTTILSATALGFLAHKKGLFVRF
Experimental: (§1) Hemmung der Monoaminoxidase
(§2) Die Bestimmung der Monoaminoxidase erfolgte in verdünntem Rattenhirnhomogenat dem 1. unterschiedliche Konzentrationen der zu prüfenden Testsubstanzen und 2. für die Bestimmung der Monoaminoxidase Typ A ¹⁴C-Tryptamin in einer Konzentration von 0,4 µmol, zur Bestimmung der Monoaminoxidase Typ B ¹⁴C-Phenylethylamin in einer Konzentration von 0,25 µmol zugesetzt wurde. Dieser Ansatz wurde 20 Minuten bei 37°C inkubiert. Die Reaktion wird durch 0,1 n HCl gestoppt und die Reaktionsprodukte nach Extraktion in Toluol-Szintillator (PPO + POPOP in Toluol) bestimmt. Der Blindwert wird in analogen Ansätzen mit einer Inkubationszeit von t = 0 Minuten bestimmt.
(§3) Aus den bei den verschiedenen Inhibitorkonzentrationen gegen die Kontrolle ermittelten Hemmwerten wurde durch lineare Regression nach logit-log-Transformation die mittlere Hemmkonzentration (IC₅₀) berechnet.

[1] = target: T2, Synaptosomen-Aufnahme von Noradrenalin (Rattus norvegicus, UniProt Q63380); experiment: Inhibition of noradrenaline uptake in rat brain synaptosomes (hippocampus, 3H-noradrenaline); conditions: for Hemmung der Synaptosomen-Aufnahme von Noradrenalin r.W. (relative Wirksamkeit): Quotient IC50 Referenzverbindung / IC50 Beispielverbindung
T2 construct: Durch differentielle Zentrifugation wurden Synaptosomen erhalten; from tissue; host or cells: rat brain hippocampus synaptosomes
From the text: (§4) Hemmung der Neurotransmitter-Aufnahme in Rattenhirn-Synaptosomen
(§5) Hippocampus und Cortex aus Rattenhirn wurden präpariert und in 0,32 M Sucrose-Lösung homogenisiert. Durch differentielle Zentrifugation wurden Synaptosomen erhalten, die in Pufferlösung suspendiert wurden. Die Synaptosomen sind in der Lage, aus dem umgebenden Medium zugefügte Neurotransmittersubstanzen (z.B. Noradrenalin oder Serotonin) aktiv aufzunehmen. Dieser Vorgang ist durch uptake-Hemmer konzentrationsabhängig antagonisierbar. Die Synaptosomen wurden mit den Testsubstanzen in verschiedenen Konzentrationen versetzt und anschließend mit ³H-Noradrenalin (Hippocampus) bzw. ³H-Serotonin (Cortex) bei 37°C inkubiert. Die Substratkonzentration betrug ca. 10 nM. Nach Stoppen der Aufnahme durch Verdünnen mit eisgekühlter Pufferlösung wurden die Synaptosomen abzentrifugiert und die ³H-Aktivität im Sediment gemessen. Der Blindwert wird durch Inkubation bei 0°C ermittelt.
(§6) Aus den verschiedenen Inhibitor-Konzentrationen gegen Kontrolle ermittelten Hemmwerten wurde durch lineare Regression nach logit-log-Transformation die mittlere Hemmkonzentration IC₅₀ berechnet.

[2] = target: T3, Synaptosomen-Aufnahme von Serotonin (Rattus norvegicus, UniProt P31652); experiment: Inhibition of serotonin uptake in rat brain synaptosomes (cortex, 3H-serotonin); conditions: for Hemmung der Synaptosomen-Aufnahme von Serotonin r.W. (relative Wirksamkeit): Quotient IC50 Referenzverbindung / IC50 Beispielverbindung
T3 construct: Durch differentielle Zentrifugation wurden Synaptosomen erhalten; from tissue; host or cells: rat brain cortex synaptosomes
From the text: as §4, §5, §6

Monoaminoxidase Typ A = target: T4, Monoaminoxidase Typ A (Rattus norvegicus, UniProt P21396); experiment: Inhibition of monoamine oxidase type A in rat brain homogenate (14C-tryptamine); conditions: for Hemmung der Monoaminoxidase Typ A r.W. (relative Wirksamkeit): Quotient IC50 Referenzverbindung / IC50 Beispielverbindung
T4 construct: Die Bestimmung der Monoaminoxidase erfolgte in verdünntem Rattenhirnhomogenat; from tissue; host or cells: rat brain homogenate
T4 sequence (P21396 1-526): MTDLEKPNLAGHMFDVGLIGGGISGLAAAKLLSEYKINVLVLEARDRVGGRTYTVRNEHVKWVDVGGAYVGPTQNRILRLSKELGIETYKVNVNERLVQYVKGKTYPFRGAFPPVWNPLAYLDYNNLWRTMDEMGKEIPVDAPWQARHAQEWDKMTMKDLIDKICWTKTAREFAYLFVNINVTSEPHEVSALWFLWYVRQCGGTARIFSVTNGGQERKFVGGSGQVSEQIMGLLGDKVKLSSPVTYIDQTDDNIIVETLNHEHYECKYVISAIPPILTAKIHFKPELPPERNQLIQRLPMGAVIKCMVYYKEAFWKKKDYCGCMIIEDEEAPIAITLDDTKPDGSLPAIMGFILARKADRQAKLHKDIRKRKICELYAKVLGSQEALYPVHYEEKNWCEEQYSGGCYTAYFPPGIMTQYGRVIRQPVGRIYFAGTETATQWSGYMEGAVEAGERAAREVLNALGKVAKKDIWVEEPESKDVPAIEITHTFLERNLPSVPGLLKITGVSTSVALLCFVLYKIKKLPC
Experimental: as §1, §2, §3

[3] = rat brain homogenate, 14C-Phenylethylamin, 20 min 37°C, read-out: Hemmung der Monoaminoxidase Typ B IC50
[4] = rat hippocampus synaptosomes, 3H-Noradrenalin ca. 10 nM, 37°C, read-out: Hemmung der Synaptosomen-Aufnahme von Noradrenalin IC50
[5] = rat cortex synaptosomes, 3H-Serotonin ca. 10 nM, 37°C, read-out: Hemmung der Synaptosomen-Aufnahme von Serotonin IC50
[6] = rat brain homogenate, 14C-Tryptamin, 20 min 37°C, read-out: Hemmung der Monoaminoxidase Typ A IC50

T2 sequence (Q63380 1-617): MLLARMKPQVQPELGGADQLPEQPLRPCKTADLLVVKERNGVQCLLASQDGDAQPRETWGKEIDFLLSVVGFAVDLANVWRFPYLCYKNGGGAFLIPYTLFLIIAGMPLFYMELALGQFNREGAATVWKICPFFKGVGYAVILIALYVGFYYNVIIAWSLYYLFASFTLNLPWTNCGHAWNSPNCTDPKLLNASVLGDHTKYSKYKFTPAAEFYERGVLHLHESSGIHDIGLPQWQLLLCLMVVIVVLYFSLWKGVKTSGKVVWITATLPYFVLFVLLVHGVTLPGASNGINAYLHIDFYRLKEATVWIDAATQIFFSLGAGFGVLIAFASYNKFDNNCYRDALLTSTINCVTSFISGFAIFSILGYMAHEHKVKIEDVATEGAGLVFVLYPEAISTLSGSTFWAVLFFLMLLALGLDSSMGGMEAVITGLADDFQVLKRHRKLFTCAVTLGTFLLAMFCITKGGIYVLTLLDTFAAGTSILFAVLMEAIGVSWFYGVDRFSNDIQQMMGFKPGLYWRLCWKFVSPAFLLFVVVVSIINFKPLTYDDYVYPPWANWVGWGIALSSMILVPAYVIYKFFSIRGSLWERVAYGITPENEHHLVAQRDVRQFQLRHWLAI
T3 sequence (P31652 whole entry): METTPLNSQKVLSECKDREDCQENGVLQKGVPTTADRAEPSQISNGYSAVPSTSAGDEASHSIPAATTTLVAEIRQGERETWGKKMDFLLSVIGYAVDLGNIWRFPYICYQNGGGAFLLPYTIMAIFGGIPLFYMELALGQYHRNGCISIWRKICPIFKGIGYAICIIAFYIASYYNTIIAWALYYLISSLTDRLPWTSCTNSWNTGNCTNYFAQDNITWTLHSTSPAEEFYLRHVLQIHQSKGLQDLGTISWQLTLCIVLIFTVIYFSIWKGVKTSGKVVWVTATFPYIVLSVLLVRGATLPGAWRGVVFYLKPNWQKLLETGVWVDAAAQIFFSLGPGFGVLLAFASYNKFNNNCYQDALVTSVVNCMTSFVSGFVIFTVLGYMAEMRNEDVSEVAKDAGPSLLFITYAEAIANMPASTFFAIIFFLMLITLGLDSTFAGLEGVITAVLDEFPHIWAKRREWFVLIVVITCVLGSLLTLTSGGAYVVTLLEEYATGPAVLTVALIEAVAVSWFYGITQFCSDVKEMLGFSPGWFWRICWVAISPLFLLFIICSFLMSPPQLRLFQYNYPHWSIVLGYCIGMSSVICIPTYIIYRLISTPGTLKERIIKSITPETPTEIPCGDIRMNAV

SMILES | Hemmung der Monoaminoxidase Typ B r.W. (relative Wirksamkeit) (Monoaminoxidase Typ B) | pIC50 (Monoaminoxidase Typ B; [3]) | Hemmung der Synaptosomen-Aufnahme von Noradrenalin r.W. (relative Wirksamkeit) [1] | pIC50 [1, 4] | Hemmung der Synaptosomen-Aufnahme von Serotonin r.W. (relative Wirksamkeit) [2] | pIC50 [2, 5] | Hemmung der Monoaminoxidase Typ A r.W. (relative Wirksamkeit) (Monoaminoxidase Typ A) | pIC50 (Monoaminoxidase Typ A; [6]) | pIC50 (Monoaminoxidase Typ B) | pIC50 [1] | pIC50 [2] | pIC50 (Monoaminoxidase Typ A) | Hemmung der Monoaminoxidase A, Wirksamkeit der Vergleichssubstanz übertroffen (fach) (Monoaminoxidase Typ A; fold versus comparison substance)
N=c1ccn(-c2ccc(Br)c(Cl)c2)nc1 [Beispiel 17, 1-(3-Chlor-4-bromphenyl)-4-(1H)-pyridazinimin-hydrochlorid] | 19.0 | 5.59 | 6.5 | 8.32 | 184 | 8.41 | 2.7 | 5.82 |  |  |  |  | 
Br.Cc1ccc(-n2ccc(=N)cn2)cc1 [Beispiel 5, 1-(4-Methylphenyl)-4-(1H)-pyridazinimin-hydrobromid] | 4.9 |  | 0.7 |  | 1.4 |  | 2.8 |  | 5.00 | 7.34 | 6.62 | 5.82 | 
N=c1ccn(-c2ccc(C(F)(F)F)cc2)nc1 [Beispiel 32, 1-(4-Trifluormethylphenyl)-4-(1H)-pyridazinimin-hydrobromid] | 12.2 | 5.40 | 0.1 | 6.15 | 16.6 | 7.36 | 0.6 | 5.15 |  |  |  |  | 
Cc1ccc(-n2ccc(=N)cn2)cc1Cl [Beispiel 42, 1-(3-Chlor-4-methylphenyl)-4-(1H)-pyridazinimin-hydrochlorid] | 24.5 | 5.70 | 2.1 | 7.82 | 36.5 | 7.70 | 5.6 | 6.12 |  |  |  |  | 
Cc1ccc(-n2ccc(=N)cn2)cc1Br [Beispiel 13, 1-(3-Brom-4-methylphenyl)-4-(1H)-pyridazinimin-hydrochlorid] | 39.8 | 5.92 | 1.2 | 7.59 | 73.0 | 8.00 | 7.0 | 6.23 |  |  |  |  | ≤ 7
Cc1cc(-n2ccc(=N)cn2)ccc1Cl [Beispiel 45, 1-(3-Methyl-4-chlorphenyl)-4-(1H)-pyridazinimin-sulfat] | 9.8 | 5.30 | 1.8 | 7.77 | 40.6 | 7.74 | 4.2 | 6.00 |  |  |  |  | 
N=c1ccn(-c2ccc(Cl)c(Br)c2)nc1 [Beispiel 16, 1-(3-Brom-4-chlorphenyl)-4-(1H)-pyridazinimin-hydrochlorid] | 18.1 | 5.57 | 2.5 | 7.89 | 109 | 8.17 | 2.0 | 5.67 |  |  |  |  | 
N=c1ccn(-c2ccc(Br)c(Br)c2)nc1 [Beispiel 18, 1-(3,4-Dibromphenyl)-4-(1H)-pyridazinimin-hydrochlorid] | 25.8 | 5.72 | 6.1 | 8.29 | 261 | 8.55 | 4.8 | 6.06 |  |  |  |  | 
COc1cc(-n2ccc(=N)cn2)ccc1C.Cl [Beispiel 10, 1-(3-Methoxy-4-methylphenyl)-4-(1H)-pyridazinimin-hydrochlorid] | 4.9 |  | 0.3 |  | 15.2 |  | 3.4 |  | 5.00 | 6.96 | 7.32 | 5.92 | 
Cc1cc(-n2ccc(=N)cn2)ccc1Br [Beispiel 46, 1-(3-Methyl-4-bromphenyl)-4-(1H)-pyridazinimin-sulfat] | 12.2 | 5.40 | 3.1 | 8.00 | 103 | 8.15 | 4.2 | 6.00 |  |  |  |  | 
N=c1ccn(-c2ccc(Br)cc2)nc1 [Beispiel 8, 1-(4-Bromphenyl)-4-(1H)-pyridazinimin-hydrochlorid] | 4.9 | 5.00 | 0.9 | 7.47 | 56.2 | 7.89 | 1.4 | 5.54 |  |  |  |  | 
CCc1ccc(-n2ccc(=N)cn2)cc1.Cl [Beispiel 7, 1-(4-Ethylphenyl)-4-(1H)-pyridazinimin-hydrochlorid] | 32.7 |  | 0.1 |  | 12.6 |  | 6.6 |  | 5.82 | 6.30 | 7.24 | 6.19 | 
N=c1ccn(-c2ccc(Cl)c(Cl)c2)nc1 [Beispiel 1, 1-(3,4-Dichlorphenyl)-4-(1H)-pyridazinimin-hydrochlorid] | 18.8 | 5.59 | 5.3 | 8.24 | 112 | 8.19 | 2.2 | 5.72 |  |  |  |  | 
N=c1ccn(-c2ccc(C(F)(F)F)c(Cl)c2)nc1 [Beispiel 12, 1-(3-Chlor-4-trifluormethylphenyl)-4-(1H)-pyridazinimin-hydrochlorid] | 71 | 6.15 | 0.4 | 7.08 | 83.9 | 8.06 | 2.3 | 5.74 |  |  |  |  | 
